Data: patent US20200392150A1, “Diaryl-B-Lactam Compound and Preparation Method and Pharmaceutical Use Thereof” (Fudan University, priority 2016, published 2020)

Tests used:
Test in all cases: In vitro cell growth inhibition assay (MTT)
Format in all cases: cell-based, human
[1] = system: A2780; conditions: A2780 human ovarian cancer cell line, 48 h, MTT; read-out: IC50 A2780
Procedure: (§1) 5000 tumor cells per well were seeded into 96-well plate and allowed to adhere overnight. Cells were treated with various concentrations of tested compounds or DMSO (0.2%, as negative control) for 48 h. Then, the medium along with tested compounds or DMSO was discarded and […] per well MTT containing medium (0.5 mg/mL) was added. After incubation at 37° C. for 4 h, the MTT-containing medium was replaced by DMSO (150 μL per well) to dissolve the formazan crystals. Absorbance of the resulting solution was measured by microplate reader (Biotech ELx800) at 540 nm wavelength. Growth inhibition rates were calculated with the absorbance. Half maximal inhibitory concentration (IC50) of each compound was calculated using GraphPad Prism, version 6.0.

[2] = system: Hela; conditions: Hela human cervical cancer cell line, 48 h, MTT; read-out: IC50 Hela
Procedure: as §1

[3] = system: MDA-MB-231; conditions: MDA-MB-231 human breast cancer cell line, 48 h, MTT; read-out: IC50 MDA-MB-231
Procedure: as §1

[4] = system: SKOV3; conditions: SK-OV-3; SKOV-3 human ovarian cancer cell line, 48 h, MTT; read-out: IC50 SKOV3
Procedure: as §1

SMILES | IC50 [1] [µM] | IC50 [2] [µM] | IC50 [3] [µM] | IC50 [4] [µM]
C=C1C(=O)N(c2cc(OC)c(OC)c(OC)c2)[C@H]1c1ccc(OC)c(OCCO)c1 [Compound 8, (S)-4-(3-(2-hydroxyethoxy)-4-methoxyphenyl)-3-methylene-1-(3,4,5-trimethoxyphenyl)azetidin-2-one] | 0.344 | 0.925 | 0.845 | 0.832
C=C1C(=O)N(c2cc(OC)c(OC)c(OC)c2)[C@H]1c1ccc(OC)c(OCCCO)c1 [Compound 9, (S)-4-(3-(3-hydroxypropoxy)-4-methoxyphenyl)-3-methylene-1-(3,4,5-trimethoxyphenyl)azetidin-2-one] | 1.54 | 7.47 | 1.92 | 3.03
C/C=C1\C(=O)N(c2cc(OC)c(OC)c(OC)c2)[C@H]1c1ccc(OC)c(O)c1 [Compound 55, (S,Z)-3-ethylidene-4-(3-hydroxy-4-methoxyphenyl)-1-(3,4,5-trimethoxyphenyl)azetidin-2-one] |  | 2.64 |  | 2.76
C/C=C1/C(=O)N(c2cc(OC)c(OC)c(OC)c2)[C@H]1c1ccc(OC)c(O)c1 [Compound 56, (S,E)-3-ethylidene-4-(3-hydroxy-4-methoxyphenyl)-1-(3,4,5-trimethoxyphenyl)azetidin-2-one] |  | 2.92 |  | 2.83
COc1ccc([C@H]2[C@@H](Cc3ccc(O)cc3)C(=O)N2c2cc(OC)c(OC)c(OC)c2)cc1O [Compound 60, (3R,4R)-4-(3-hydroxy-4-methoxyphenyl)-3-(4-hydroxybenzyl)-1-(3,4,5-trimethoxyphenyl)azetidin-2-one] |  | 7.26 |  | 2.85
COc1ccc([C@H]2[C@@H](CO)C(=O)N2c2cc(OC)c(OC)c(OC)c2)cc1O [Compound 68, (3S,4R)-4-(3-hydroxy-4-methoxyphenyl)-3-(hydroxymethyl)-1-(3,4,5-trimethoxyphenyl)azetidin-2-one] | 0.22 | 0.358 | 0.182 | 
COc1ccc([C@H]2[C@@H](O)C(=O)N2c2cc(OC)c(OC)c(OC)c2)cc1OCc1ccccc1 [Compound 72, (3R,4S)-4-(3-(benzyloxy)-4-methoxyphenyl)-3-hydroxy-1-(3,4,5-trimethoxyphenyl)azetidin-2-one] |  | > 10 |  | > 10
COc1ccc([C@H]2[C@@H](OS(C)(=O)=O)C(=O)N2c2cc(OC)c(OC)c(OC)c2)cc1OCc1ccccc1 [Compound 73, (3R,4S)-2-(3-(benzyloxy)-4-methoxyphenyl)-4-oxo-1-(3,4,5-trimethoxyphenyl)azetidin-3-yl methanesulfonate] |  | > 10 |  | > 10
COc1ccc([C@H]2[C@@H](OS(C)(=O)=O)C(=O)N2c2cc(OC)c(OC)c(OC)c2)cc1O [Compound 74, (3R,4S)-2-(3-(hydroxy)-4-methoxyphenyl)-4-oxo-1-(3,4,5-trimethoxyphenyl)azetidin-3-yl methanesulfonate] |  | 0.754 |  | 0.98
COc1ccc([C@H]2[C@H](N=[N+]=[N-])C(=O)N2c2cc(OC)c(OC)c(OC)c2)cc1OCc1ccccc1 [Compound 75, (3S,4S)-3-azido-4-(3-(benzyloxy)-4-methoxyphenyl)-1-(3,4,5-trimethoxyphenyl)azetidin-2-one] |  | > 10 |  | > 10
COc1ccc([C@H]2[C@H](N)C(=O)N2c2cc(OC)c(OC)c(OC)c2)cc1OCc1ccccc1 [Compound 76, (3S,4S)-3-amino-4-(3-(benzyloxy)-4-methoxyphenyl)-1-(3,4,5-trimethoxyphenyl)azetidin-2-one] |  | 7.46 |  | 8.54
COc1ccc([C@@H]2N(c3cc(OC)c(OC)c(OC)c3)C(=O)[C@]2(O)CO)cc1OC(C)=O [Compound 82, 5-((2S,3R)-3-hydroxy-3-(hydroxymethyl)-4-oxo-1-(3,4,5-trimethoxyphenyl)azetidin-2-yl)-2-methoxyphenyl acetate] |  | 0.863 |  | 0.625
COc1ccc([C@@H]2N(c3cc(OC)c(OC)c(OC)c3)C(=O)[C@@]2(COC(C)=O)OC(C)=O)cc1OC(C)=O [Compound 83, ((2S,3R)-3-acetoxy-2-(3-acetoxy-4-methoxyphenyl)-4-oxo-1-(3,4,5-trimethoxyphenyl)azetidin-3-yl)methyl acetate] |  | > 10 |  | > 10
COc1ccc([C@@H]2N(c3cc(OC)c(OC)c(OC)c3)C(=O)[C@]2(O)CO)cc1OCc1ccccc1 [Compound 84, (3R,4S)-4-(3-(benzyloxy)-4-methoxyphenyl)-3-hydroxy-3-(hydroxymethyl)-1-(3,4,5-trimethoxyphenyl)azetidin-2-one] |  | > 10 |  | 2.32
C=CC(=O)OC[C@@]1(OC(=O)C=C)C(=O)N(c2cc(OC)c(OC)c(OC)c2)[C@H]1c1ccc(OC)c(OC(=O)C=C)c1 [Compound 89, ((2S,3R)-3-(acryloyloxy)-2-(3-(acryloyloxy)-4-methoxyphenyl)-4-oxo-1-(3,4,5-trimethoxyphenyl)azetidin-3-yl)methyl acrylate] |  | 2.45 |  | 2.23
C=CC(=O)N[C@@H]1C(=O)N(c2cc(OC)c(OC)c(OC)c2)[C@H]1c1ccc(OC)c(OC(=O)C=C)c1 [Compound 90, 5-((2S,3S)-3-acrylamido-4-oxo-1-(3,4,5-trimethoxyphenyl)azetidin-2-yl)-2-methoxyphenyl acrylate] |  | 0.025 |  | 0.016
C=C1CN(c2cc(OC)c(OC)c(OC)c2)[C@H]1c1ccc(OC)c(O)c1 [Compound 91, (S)-2-methoxy-5-(3-methylene-1-(3,4,5-trimethoxyphenyl)azetidin-2-yl)phenol] |  | 0.252 |  | 0.246
COc1ccc([C@@H]2N(c3cc(OC)c(OC)c(OC)c3)C(=O)[C@]23COC(=O)O3)cc1OC(C)=O [Compound 92, 5-((1S,4R)-3,6-dioxo-2-(3,4,5-trimethoxyphenyl)-5,7-dioxa-2-azaspiro[3.4]octan-1-yl)-2-methoxyphenyl acetate] |  | 1.57 |  | 1.28
COc1ccc([C@H]2C(=O)C(=O)N2c2cc(OC)c(OC)c(OC)c2)cc1OC(C)=O [Compound 93, (S)-5-(3,4-dioxo-1-(3,4,5-trimethoxyphenyl)azetidin-2-yl)-2-methoxyphenyl acetate] |  | > 10 |  | > 10
COc1ccc([C@@H]2N(c3cc(OC)c(OC)c(OC)c3)C(=O)[C@]2(C)O)cc1OC(C)=O [Compound 94, 5-((2S,3R)-3-hydroxy-3-methyl-4-oxo-1-(3,4,5-trimethoxyphenyl)azetidin-2-yl)-2-methoxyphenyl acetate] |  | 0.094 |  | 0.147
COc1ccc([C@@H]2N(c3cc(OC)c(OC)c(OC)c3)C(=O)[C@]2(C)O)cc1O [Compound 95, (3R,4S)-3-hydroxy-4-(3-hydroxy-4-methoxyphenyl)-3-methyl-1-(3,4,5-trimethoxyphenyl)azetidin-2-one] |  | 0.213 |  | 0.103
COc1ccc([C@@H]2[C@@H](CO)C(=O)N2c2cc(OC)c(OC)c(OC)c2)cc1O [Compound 99, (3S,4S)-4-(3-hydroxy-4-methoxyphenyl)-3-(hydroxymethyl)-1-(3,4,5-trimethoxyphenyl)azetidin-2-one] | > 20 | > 20 | > 20 | 
COc1ccc([C@@H]2[C@H](CO)C(=O)N2c2cc(OC)c(OC)c(OC)c2)cc1O [Compound 100, (3R,4S)-4-(3-hydroxy-4-methoxyphenyl)-3-(hydroxymethyl)-1-(3,4,5-trimethoxyphenyl)azetidin-2-one] | 0.364 | 0.332 | 0.383 | 
